Measurements: US10538555B2, “Macrocyclic inhibitors of the PD-1/PD-L1 and CD80(B7-1)/PD-L1 protein/protein interactions” (BRISTOL-MYERS SQUIBB COMPANY, priority 2014, dated 2020)
Read-outs that look alike come from different tables or passages of the source. *1 amine or outer side, *2 acyl side, *3 side chain or, on linkers, in order; H or OH if unused. Where a SMILES comes first, the peptide text is derived from it. Bridges are numbered along the chain shown (N, C = ends). [ ]: non-standard residue; d: D form. ξ: configuration not given here. Trp(1-CH2COOH) = N[C@@H](Cc1cn(CC(=O)O)c2ccccc12)C(=O)O; Phe(3,4,5-F3) = N[C@@H](Cc1cc(F)c(F)c(F)c1)C(=O)O; Phe(3,4-F2) = N[C@@H](Cc1ccc(F)c(F)c1)C(=O)O; Trp(2-Me) = Cc1[nH]c2ccccc2c1C[C@H](N)C(=O)O; d(cisHyp) = O=C(O)[C@H]1C[C@@H](O)CN1; NMeY = CN[C@@H](Cc1ccc(O)cc1)C(=O)O; Hyp = O=C(O)[C@@H]1C[C@@H](O)CN1; NMeF = CN[C@@H](Cc1ccccc1)C(=O)O; X1 = O=C([C@H]1COCCN1[*:1])[*:2]; dPip(4-aza) = O=C(O)[C@H]1CNCCN1; NMeNle = CCCC[C@H](NC)C(=O)O; hSer = N[C@@H](CCO)C(=O)O; NMeA = CN[C@@H](C)C(=O)O; Orn = NCCC[C@H](N)C(=O)O; dThz = O=C(O)[C@H]1CSCN1; Dab = NCC[C@H](N)C(=O)O; dAze = O=C(O)[C@H]1CCN1; Dap = NC[C@H](N)C(=O)O; ξC = NC(CS)C(=O)O; Sar = CNCC(=O)O

Molecular target: T1, Human PD-L1/PD-1 (Homo sapiens, UniProt Q9NZQ7)
T1 construct: TVMV protease cleavage site (C); made in house; host or cells: HEK293T cells
T1 sequence (Q9NZQ7 with tags, fused parts or gaps): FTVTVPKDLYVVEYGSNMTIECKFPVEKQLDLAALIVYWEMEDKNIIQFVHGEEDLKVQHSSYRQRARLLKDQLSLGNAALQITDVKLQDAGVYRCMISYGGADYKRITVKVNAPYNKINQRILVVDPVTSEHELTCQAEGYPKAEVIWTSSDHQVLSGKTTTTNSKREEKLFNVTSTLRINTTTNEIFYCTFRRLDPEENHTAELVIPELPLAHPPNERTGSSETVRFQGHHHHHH
Test: HTRF Human PD-L1/PD-1 binding assay (PD-1-Ig/PD-L1-His)
Settings: PD-L1-His 10 nM, PD-1-Ig 20 nM
Procedure, shortened: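 Compound preincubated 15 min with PD-L1-His (10 nM final), then PD-1-Ig (20 nM final) added for 15 min in dPBS with 0.1% BSA and 0.05% Tween-20. Detection by Eu-cryptate anti-Ig (1 nM) and APC anti-His (20 nM) after 30 min; 665/620 nm HTRF ratio. Proteins expressed in HEK293T.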

[1] = class symbol, read-out: HTRF Human PD-L1/PD-1 Binding Assay IC50 Range
[2] = read-out: HTRF Human PD-L1/PD-1 Binding Assay IC50

| SMILES | IC50 [1] | IC50 [2] |
| --- | --- | --- |
| CCCC[C@H]1C(=O)N(C)[C@@H](CCCC)C(=O)N[C@@H](C)C(=O)N[C@H](C(=O)NCC(N)=O)CSCC(=O)N[C@@H](Cc2ccc(O)cc2)C(=O)N(C)[C@@H](C)C(=O)N[C@@H](CC(N)=O)C(=O)N2CCC[C@H]2C(=O)N[C@@H](Cc2cnc[nH]2)C(=O)N[C@@H](CCC(N)=O)C(=O)N2C[C@H](O)C[C@H]2C(=O)N[C@@H](Cc2c[nH]c3ccccc23)C(=O)N[C@@H](CO)C(=O)N[C@@H](Cc2c(C)[nH]c3ccccc23)C(=O)N1C [Example 1285] ({CH2CO}-Y[NMeA]NPHQ[Hyp]WS[Trp(2-Me)][NMeNle][NMeNle]ACG-NH2; thioether N-14) | 1 to 9.9 nM | – |
| CCCC[C@H]1C(=O)N2C[C@H](O)C[C@@H]2C(=O)N[C@@H](CC(=O)O)C(=O)N[C@@H](C(C)C)C(=O)N(C)[C@@H](Cc2ccccc2)C(=O)N[C@@H](CCCN)C(=O)N2CCC[C@@H]2C(=O)N[C@@H](Cc2c[nH]c3ccccc23)C(=O)N[C@@H](Cc2ccc(O)cc2)C(=O)N[C@@H](CCO)C(=O)N[C@H](C(=O)NCC(N)=O)CSCC(=O)N[C@@H](Cc2cc(F)c(F)c(F)c2)C(=O)N(C)[C@@H](Cc2ccccc2)C(=O)N1C [Example 10152] ({CH2CO}-[Phe(3,4,5-F3)][NMeF][NMeNle][d(cisHyp)]DV[NMeF][Orn][dP]WY[hSer]CG-NH2; thioether N-13) | 1 to 9.9 nM | – |
| CCCC[C@H]1C(=O)N(C)[C@@H](CCCC)C(=O)N[C@@H](CC(C)C)C(=O)N[C@H](C(=O)NCC(N)=O)CSCC(=O)N[C@@H](Cc2ccc(O)cc2)C(=O)N(C)[C@@H](C)C(=O)N[C@@H](CC(N)=O)C(=O)N2CCC[C@H]2C(=O)N[C@@H](CN)C(=O)N[C@@H](CC(C)C)C(=O)N(C)CC(=O)N[C@@H](Cc2c[nH]c3ccccc23)C(=O)N[C@@H](CCN)C(=O)N[C@@H](Cc2cn(CC(=O)O)c3ccccc23)C(=O)N1C [Example 6170] ({CH2CO}-Y[NMeA]NP[Dap]L[Sar]W[Dab][Trp(1-CH2COOH)][NMeNle][NMeNle]LCG-NH2; thioether N-14) | 1 to 9.9 nM | – |
| CCCC[C@H]1C(=O)N2CC[C@@H]2C(=O)N[C@@H](CC(=O)O)C(=O)N[C@@H](C(C)C)C(=O)N(C)[C@@H](Cc2ccccc2)C(=O)N[C@@H](CCC(=O)O)C(=O)N2CCOC[C@@H]2C(=O)N[C@@H](Cc2c[nH]c3ccccc23)C(=O)N[C@@H](Cc2ccc(O)cc2)C(=O)N[C@@H](CCCN)C(=O)N[C@H](C(=O)NCC(N)=O)CSCC(=O)N[C@@H](Cc2cc(F)c(F)c(F)c2)C(=O)N(C)[C@@H](Cc2ccccc2)C(=O)N1C [Example 3643] ({CH2CO}-[Phe(3,4,5-F3)][NMeF][NMeNle][dAze]DV[NMeF]E[X1]WY[Orn]CG-NH2; thioether N-13) | 10 to 99.9 nM | – |
| CCCC[C@H]1C(=O)N2CCC[C@@H]2C(=O)N[C@@H](CC(=O)O)C(=O)N[C@@H](C(C)C)C(=O)N(C)[C@@H](Cc2ccccc2)C(=O)N[C@@H](CC(=O)O)C(=O)N2C[C@H](O)C[C@@H]2C(=O)N[C@@H](Cc2c[nH]c3ccccc23)C(=O)N[C@@H](Cc2ccc(O)cc2)C(=O)N[C@@H](CCCCN)C(=O)N[C@H](C(=O)NCC(N)=O)CSCC(=O)N[C@@H](Cc2cc(F)c(F)c(F)c2)C(=O)N(C)[C@@H](Cc2ccccc2)C(=O)N1C [Example 10174] ({CH2CO}-[Phe(3,4,5-F3)][NMeF][NMeNle][dP]DV[NMeF]D[d(cisHyp)]WYKCG-NH2; thioether N-13) | 1 to 9.9 nM | – |
| CCCC[C@H]1C(=O)N2CCC[C@@H]2C(=O)N[C@@H](CC(=O)O)C(=O)N[C@@H](C(C)C)C(=O)N(C)[C@@H](Cc2ccccc2)C(=O)N[C@@H](CCC(=O)O)C(=O)N2CCOC[C@@H]2C(=O)N[C@@H](Cc2c[nH]c3ccccc23)C(=O)N[C@@H](Cc2ccc(O)cc2)C(=O)N[C@@H](CCN)C(=O)N[C@H](C(=O)NCC(N)=O)CSCC(=O)N[C@@H](Cc2cc(F)c(F)c(F)c2)C(=O)N(C)[C@@H](Cc2ccc(O)cc2)C(=O)N1C [Example 10616] ({CH2CO}-[Phe(3,4,5-F3)][NMeY][NMeNle][dP]DV[NMeF]E[X1]WY[Dab]CG-NH2; thioether N-13) | – | 10.6 nM |
| CCCC[C@H]1C(=O)N(C)[C@@H](CCCC)C(=O)N[C@@H](C)C(=O)N[C@H](C(=O)NCC(N)=O)CSCC(=O)N[C@@H](Cc2ccc(O)cc2)C(=O)N2CCNC[C@H]2C(=O)N[C@@H](CC(N)=O)C(=O)N2CCC[C@H]2C(=O)N[C@@H](Cc2c[nH]cn2)C(=O)N[C@@H](CC(C)C)C(=O)N2C[C@H](O)C[C@H]2C(=O)N[C@@H](Cc2c[nH]c3ccccc23)C(=O)N[C@@H](CO)C(=O)N[C@@H](Cc2c[nH]c3ccccc23)C(=O)N1C [Example 1529] | 1 to 9.9 nM | – |
| CCCC[C@H]1C(=O)N2CCC[C@@H]2C(=O)N[C@@H](CC(=O)O)C(=O)N[C@@H](C(C)C)C(=O)N(C)[C@@H](Cc2ccccc2)C(=O)N[C@@H](CCN)C(=O)N2CCOC[C@@H]2C(=O)N[C@@H](Cc2c[nH]c3ccccc23)C(=O)N[C@@H](Cc2ccc(O)cc2)C(=O)N[C@@H](CCCN)C(=O)N[C@H](C(=O)NCC(N)=O)CSCC(=O)N[C@@H](Cc2cc(F)c(F)c(F)c2)C(=O)N(C)[C@@H](Cc2ccc(O)cc2)C(=O)N1C [Example 10625] ({CH2CO}-[Phe(3,4,5-F3)][NMeY][NMeNle][dP]DV[NMeF][Dab][X1]WY[Orn]CG-NH2; thioether N-13) | 10 to 99.9 nM | – |
| CCCC[C@H]1C(=O)N(C)[C@@H](CCCC)C(=O)N[C@@H](C)C(=O)N[C@H](C(=O)NCC(N)=O)CSCC(=O)N[C@@H](Cc2ccc(O)cc2)C(=O)N(C)[C@@H](C)C(=O)N[C@@H](CCC(=O)O)C(=O)N2CCC[C@H]2C(=O)N[C@@H](Cc2cnc[nH]2)C(=O)N[C@@H](CCN)C(=O)N2C[C@H](O)C[C@H]2C(=O)N[C@@H](Cc2c[nH]c3ccccc23)C(=O)N[C@@H](CO)C(=O)N[C@@H](Cc2c[nH]c3ccccc23)C(=O)N1C [Example 1248] ({CH2CO}-Y[NMeA]EPH[Dab][Hyp]WSW[NMeNle][NMeNle]ACG-NH2; thioether N-14) | 10 to 99.9 nM | – |
| CCCC[C@H]1C(=O)N2CCC[C@@H]2C(=O)N[C@@H](CC(N)=O)C(=O)N[C@@H](C(C)C)C(=O)N(C)[C@@H](Cc2ccccc2)C(=O)N[C@@H](Cc2ccc(O)cc2)C(=O)N2CSC[C@@H]2C(=O)N[C@@H](Cc2c[nH]c3ccccc23)C(=O)N[C@@H](Cc2ccc(O)cc2)C(=O)N[C@@H](CC(C)C)C(=O)N[C@H](C(=O)NCC(N)=O)CSCC(=O)N[C@@H](Cc2ccccc2)C(=O)N(C)[C@@H](Cc2ccccc2)C(=O)N1C [Example 10069] ({CH2CO}-F[NMeF][NMeNle][dP]NV[NMeF]Y[dThz]WYLCG-NH2; thioether N-13) | – | 12.6 nM |
| CCCC[C@H]1C(=O)N(C)[C@@H](CCCC)C(=O)N[C@@H](CCC(=O)O)C(=O)N[C@H](C(=O)NCC(N)=O)CSCC(=O)N[C@@H](Cc2ccc(O)cc2)C(=O)N(C)[C@@H](C)C(=O)N[C@@H](CC(=O)O)C(=O)N2CCC[C@H]2C(=O)N[C@@H](CO)C(=O)N[C@@H](CC(C)C)C(=O)N2C[C@H](O)C[C@H]2C(=O)N[C@@H](Cc2c[nH]c3ccccc23)C(=O)N[C@@H](CCN)C(=O)N[C@@H](Cc2c[nH]c3ccccc23)C(=O)N1C [Example 5179] ({CH2CO}-Y[NMeA]DPSL[Hyp]W[Dab]W[NMeNle][NMeNle]ECG-NH2; thioether N-14) | 1 to 9.9 nM | – |
| CCCC[C@H]1C(=O)N(C)[C@@H](C)C(=O)N[C@@H](CCCNC(=N)N)C(=O)NC(C(=O)N[C@@H](CO)C(N)=O)CSCC(=O)N[C@@H](Cc2ccc(O)cc2)C(=O)N(C)[C@@H](C)C(=O)N[C@@H](CC(N)=O)C(=O)N2CCC[C@H]2C(=O)N[C@@H](CO)C(=O)N[C@H](CC(C)C)C(=O)N2C[C@H](O)C[C@H]2C(=O)N[C@@H](Cc2c[nH]c3ccccc23)C(=O)N[C@@H](CO)C(=O)N[C@@H](Cc2c[nH]c3ccccc23)C(=O)N1C (stereo partly drawn) [Example 9123] ({CH2CO}-Y[NMeA]NPS[dL][Hyp]WSW[NMeNle][NMeA]R[ξC]S-NH2; thioether N-14) | 1 to 9.9 nM | – |
| CCCC[C@H]1C(=O)N(C)[C@@H](CCCC)C(=O)N[C@@H](CCC(=O)O)C(=O)NC(C(=O)NCC(N)=O)CSCC(=O)N[C@@H](Cc2ccc(O)cc2)C(=O)N(C)[C@@H](C)C(=O)N[C@@H](CC(N)=O)C(=O)N2CCC[C@H]2C(=O)N[C@@H](CC(N)=O)C(=O)N[C@@H](CC(C)C)C(=O)N2CCC[C@H]2C(=O)N[C@@H](Cc2c[nH]c3ccccc23)C(=O)N[C@@H](CCN)C(=O)N[C@@H](Cc2c[nH]c3ccccc23)C(=O)N1C (stereo partly drawn) [Example 9180] ({CH2CO}-Y[NMeA]NPNLPW[Dab]W[NMeNle][NMeNle]E[ξC]G-NH2; thioether N-14) | 1 to 9.9 nM | – |
| CCCC[C@H]1C(=O)N2C[C@H](O)C[C@@H]2C(=O)N[C@@H](CC(=O)O)C(=O)N[C@@H](C(C)C)C(=O)N(C)[C@@H](Cc2ccccc2)C(=O)N[C@@H](CCCCN)C(=O)N2C[C@H](O)C[C@@H]2C(=O)N[C@@H](Cc2c[nH]c3ccccc23)C(=O)N[C@@H](Cc2ccc(O)cc2)C(=O)N[C@@H](CC(C)C)C(=O)N[C@H](C(=O)NCC(N)=O)CSCC(=O)N[C@@H](Cc2ccc(F)c(F)c2)C(=O)N(C)[C@@H](Cc2ccccc2)C(=O)N1C [Example 9318] ({CH2CO}-[Phe(3,4-F2)][NMeF][NMeNle][d(cisHyp)]DV[NMeF]K[d(cisHyp)]WYLCG-NH2; thioether N-13) | 1 to 9.9 nM | – |
| CCCC[C@H]1C(=O)N2CCC[C@@H]2C(=O)N[C@@H](CC(=O)O)C(=O)N[C@@H](C(C)C)C(=O)N(C)[C@@H](Cc2ccccc2)C(=O)N[C@@H](Cc2ccc(O)cc2)C(=O)N2CCNC[C@@H]2C(=O)N[C@@H](Cc2c[nH]c3ccccc23)C(=O)N[C@@H](Cc2ccc(O)cc2)C(=O)N[C@@H](CC(C)C)C(=O)N[C@H](C(=O)NCC(N)=O)CSCC(=O)N[C@@H](Cc2cc(F)c(F)c(F)c2)C(=O)N(C)[C@@H](Cc2ccccc2)C(=O)N1C [Example 10100] ({CH2CO}-[Phe(3,4,5-F3)][NMeF][NMeNle][dP]DV[NMeF]Y[dPip(4-aza)]WYLCG-NH2; thioether N-13) | 1 to 9.9 nM | – |
